Usually IC50 stands for the concentration needed to halve the response being measured. Low readings indicate greater potency, high ones weaker potency.

This is an account of results in patent US6441021B1, “Sulfonated amino acid derivatives and metalloproteinase inhibitors containing the same” (Shionogi & Co., Ltd., priority 1996, dated 2002).

Read-outs that look alike come from different tables or passages of the source.

The test has as its target T1, MMP-9 (92 kDa, gelatinase B; type IV collagenase) (Homo sapiens, UniProt P14780).
T1 construct: endogenous in cells; enzyme purified from the conditioned medium
Put plainly: Assay of type IV collagenase inhibitors: activated MMP-9 with type IV collagenase activity kit substrate, fluorescent intensity. The test is classed as biochemical. The method, then: (1) Isolation and Purification of MMP-9 (92 kDa, Gelatinase B)
Type IV collagenase (MMP-9) was purified according to the methods descrived in the following literature.
Subsequently, activated MMP-9 was obtained by treating the pro-MMP-9 with trypsin.
(2) Assay Methods of Type IV Collagenase Inhibitors
Collagenase assay was performed using the activated MMP-9 described above and the substrate supplied in the type IV collagenase activity kit (YAGAI, inc.), according to the manufacturer's protocol. The following 4 assays are performed per compound (inhibitor).
(A) substrate (type IV collagenase), enzyme (MMP-9), inhibitor
(B) substrate (type IV collagenase), inhibitor
(C) substrate (type IV collagenase), enzyme (MMP-9)
(D) substrate (type IV collagenase)
According to the manufacturer's protocol, fluorescent intensity was measured and percent inhibition was determined by the following equation.
Inhibition (%)={1−(A−B)/(C−D)}×100

The mark [1] stands for this setting: activated MMP-9, type IV collagenase activity kit substrate, fluorescent intensity, concentration at which percent inhibition reaches 50%.
Setting [2] is: inhibition of type IV collagenase (MMP-9), concentration at which percent inhibition reaches 50%.

T1 sequence (P14780 107-707 limits assumed): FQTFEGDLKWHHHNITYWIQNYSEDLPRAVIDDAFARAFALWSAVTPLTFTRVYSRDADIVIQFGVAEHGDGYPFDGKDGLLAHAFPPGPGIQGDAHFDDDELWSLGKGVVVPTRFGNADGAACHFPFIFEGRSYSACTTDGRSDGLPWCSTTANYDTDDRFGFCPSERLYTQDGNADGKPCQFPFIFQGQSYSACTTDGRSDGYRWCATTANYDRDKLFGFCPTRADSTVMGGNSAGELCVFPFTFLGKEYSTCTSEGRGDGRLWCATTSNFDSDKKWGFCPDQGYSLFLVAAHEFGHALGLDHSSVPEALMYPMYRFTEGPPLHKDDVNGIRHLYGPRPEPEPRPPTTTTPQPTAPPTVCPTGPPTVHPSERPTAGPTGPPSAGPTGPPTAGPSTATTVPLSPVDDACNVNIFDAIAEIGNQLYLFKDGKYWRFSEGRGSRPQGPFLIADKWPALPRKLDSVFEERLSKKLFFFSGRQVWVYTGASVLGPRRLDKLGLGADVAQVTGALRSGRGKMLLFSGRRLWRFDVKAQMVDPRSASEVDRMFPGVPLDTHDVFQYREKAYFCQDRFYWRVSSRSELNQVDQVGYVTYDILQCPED

Regarding `O=C(O)C(Cc1c[nH]c2ccc(F)cc12)NS(=O)(=O)c1ccc(-c2ccccc2)cc1` (racemic) [Example 1a-1-18], 500 nM corresponded to half-maximal inhibition under setting [1] (IC50).
Under setting [1], `Cc1ccc2[nH]cc(CC(NS(=O)(=O)c3ccc(Oc4ccccc4)cc3)C(=O)O)c2c1` (racemic) [Example 1a-1-65] returned an IC50 of 291 nM.
The same measure, in the same setting: next, `O=C(NO)C(Cc1cscn1)NS(=O)(=O)c1ccc(-c2ccccc2)cc1` (racemic) [Example 1b-1-2]: 40 nM; `Cc1ccc2[nH]cc(CC(NS(=O)(=O)c3ccc(-c4ccccc4)cc3)C(=O)NO)c2c1` (racemic) [Example 1b-1-17]: 20.3 nM.
`COc1ccc(-c2ccc(S(=O)(=O)N[C@H](Cc3ccccc3)C(=O)O)s2)cc1` [1a-3-10]: under setting [2], the IC50 is 8.3 nM.
`O=C(O)[C@@H](Cc1ccccc1)NS(=O)(=O)c1ccc(-c2ccccc2)cc1` [Example 1a-1-1] gave a half-inhibitory concentration (IC50) under setting [1] of 240 nM.
On the same count and under the same terms, next, `O=C(O)[C@@H](Cc1c[nH]c2ccccc12)NS(=O)(=O)c1ccc(-c2ccc(F)cc2)cc1` [Example 1a-1-41]: 312 nM; `CC(C)[C@@H](NS(=O)(=O)c1ccc(-c2ccccc2)cc1)C(=O)O` [Example 1a-1-43]: 625 nM.
In the case of `CC(C)[C@@H](NS(=O)(=O)c1ccc(-c2ccc(C(C)(C)C)cc2)cc1)C(=O)O` [Example 1a-1-44], 1910 nM corresponded to half-maximal inhibition under setting [1] (IC50).
In turn, `CC(C)[C@@H](NS(=O)(=O)c1ccc(-c2ccc(-c3ccccc3)cc2)cc1)C(=O)O` [Example 1a-1-45] yielded an IC50 under setting [1] of 40 nM.
The same measure, in the same setting: the figure for `CC(C)[C@@H](NS(=O)(=O)c1ccc(-c2ccc(C(F)(F)F)cc2)cc1)C(=O)O` [Example 1a-1-46] is 1120 nM; for `CC(C)[C@@H](NS(=O)(=O)c1ccc(-c2ccc(F)cc2)cc1)C(=O)O` [Example 1a-1-48] it is 1150 nM; for `COc1ccc(-c2ccc(S(=O)(=O)N[C@H](Cc3ccccc3)C(=O)O)cc2)cc1` [Example 1a-1-50] it is 553 nM.
Under setting [1], `CSc1ccc(-c2ccc(S(=O)(=O)N[C@H](Cc3ccccc3)C(=O)O)cc2)cc1` [Example 1a-1-54] showed an IC50 of 75 nM.
Under setting [1], `CSc1ccc(-c2ccc(S(=O)(=O)N[C@@H](C(=O)O)C(C)C)cc2)cc1` [Example 1a-1-55] gave an IC50 of 39.8 nM.
Turning to `O=C(O)[C@@H](Cc1ccccc1)NS(=O)(=O)c1ccc(Oc2ccccc2)cc1` [Example 1a-1-60], the IC50 under setting [1] worked out at 1310 nM.
For `O=C(O)[C@@H](Cc1c[nH]c2ccccc12)NS(=O)(=O)c1ccc(Oc2ccccc2)cc1` [Example 1a-1-61], the half-inhibitory concentration (IC50) under setting [1] was found to be 247 nM.
`O=C(O)[C@@H](Cc1c[nH]c2ccccc12)NS(=O)(=O)c1ccc(-c2nc3ccccc3s2)cc1` [Example 1a-1-83] yielded an IC50 under setting [2] of 1770 nM.
On the same count and under the same terms, the figure for `CN(C)c1ccc(N=Nc2ccc(S(=O)(=O)N[C@H](Cc3ccccc3)C(=O)O)cc2)cc1` [Example 1a-1-86] is 350 nM.
The same measure, in the same setting: the figure for `O=C(O)[C@@H](Cc1c[nH]c2ccccc12)NS(=O)(=O)c1ccc(C#Cc2ccccc2)cc1` [Example 1a-2-2] is 237 nM; for `O=C(O)[C@@H](Cc1c[nH]c2ccccc12)NS(=O)(=O)c1ccc(C#Cc2ccc([N+](=O)[O-])cc2)cc1` [Example 1a-2-7] it is 69.9 nM.
`Nc1ccc(C#Cc2ccc(S(=O)(=O)N[C@H](Cc3c[nH]c4ccccc34)C(=O)O)cc2)cc1` [Example 1a-2-9]: under setting [2], the IC50 was found to be 57.7 nM.
For `C#Cc1ccc(C#Cc2ccc(S(=O)(=O)N[C@H](Cc3c[nH]c4ccccc34)C(=O)O)cc2)cc1` [Example 1a-2-11], the IC50 under setting [2] was determined as 47.5 nM.
The compound `CC(C)[C@@H](NS(=O)(=O)c1ccc(C#Cc2ccc(F)cc2)cc1)C(=O)O` [Example 1a-2-19] showed an IC50 under setting [2] of 203 nM.
The compound `COc1ccc(C#Cc2ccc(S(=O)(=O)N[C@@H](C(=O)O)C(C)(C)C)cc2)cc1` [Example 1a-2-20] returned an IC50 under setting [2] of 3410 nM.
In turn, `CCC(C)[C@@H](NS(=O)(=O)c1ccc(C#Cc2ccc(OC)cc2)cc1)C(=O)O` (stereo partly drawn) [Example 1a-2-21] returned an IC50 under setting [2] of 3740 nM.
Still for that read-out and setting: next, `Cc1ccc(C#Cc2ccc(S(=O)(=O)N[C@H](Cc3ccccc3)C(=O)O)s2)cc1` [Example 1a-2-37]: 92.2 nM; `O=C(O)[C@@H](Cc1ccccc1)NS(=O)(=O)c1ccc(C#Cc2ccc(F)cc2)s1` [Example 1a-2-38]: 222 nM.
On to `Cc1ccc(-c2ccc(S(=O)(=O)N[C@H](Cc3c[nH]c4ccccc34)C(=O)O)s2)cc1` [Example 1a-3-3], for which it took 10.8 nM to reach half-maximal inhibition under setting [2] (IC50).
`Cc1ccc(-c2ccc(S(=O)(=O)N[C@@H](C(=O)O)C(C)C)s2)cc1` [Example 1a-3-7] had an IC50 under setting [2] of 230 nM.
In turn, `CC(C)[C@@H](NS(=O)(=O)c1ccc(-c2ccc(F)cc2)s1)C(=O)O` [Example 1a-3-8] returned an IC50 under setting [2] of 1280 nM.
The compound `CSc1ccc(-c2ccc(S(=O)(=O)N[C@@H](C(=O)O)C(C)C)s2)cc1` [Example 1a-3-9] yielded an IC50 under setting [2] of 14 nM.
On to `O=C(NO)[C@@H](Cc1ccccc1)NS(=O)(=O)c1ccc(-c2ccccc2)cc1` [Example 1b-1-1], for which inhibition under setting [1] was half-maximal at 30 nM (IC50).
The same measure, in the same setting: next, `O=C(NO)[C@@H](Cc1ccccc1)NS(=O)(=O)c1ccc(C(F)(F)F)cc1` [Example 1b-1-10]: 2100 nM.
As for `CN(C)c1cccc2c(S(=O)(=O)N[C@H](Cc3ccccc3)C(=O)NO)cccc12` [Example 1b-1-11], under setting [1], the IC50 turned out to be 1700 nM.
For the compound `O=C(NO)[C@@H](Cc1ccccc1)NS(=O)(=O)c1ccc(O)cc1` [Example 1b-1-24], the IC50 under setting [1] was 200 nM.
Turning to `O=C(NO)[C@@H](Cc1ccccc1)NS(=O)(=O)c1ccc([N+](=O)[O-])cc1` [Example 1b-1-27], half-maximal inhibition under setting [1] (IC50) required 3000 nM.
With `O=C(NO)[C@@H](Cc1c[nH]c2ccccc12)NS(=O)(=O)c1ccc(-c2ccccc2)cc1` [Example 1b-1-33], the IC50 under setting [1] turned out to be 5 nM.
`O=C(NO)[C@@H](Cc1ccccc1)NS(=O)(=O)c1ccc(Oc2ccccc2)cc1` [Example 1b-1-60] displayed an IC50 under setting [1] of 1.2 nM.
`O=C(NO)[C@H](Cc1c[nH]c2ccccc12)NS(=O)(=O)c1ccc(Oc2ccccc2)cc1` [Example 1b-1-62] showed an IC50 under setting [1] of 3500 nM.
As to `CC(C)[C@@H](NS(=O)(=O)c1ccc(Oc2ccccc2)cc1)C(=O)NO` [Example 1b-1-63], under setting [1], the IC50 is 0.39 nM.
Consider `O=C(NO)[C@@H](Cc1ccccc1)NS(=O)(=O)c1ccc(N=Nc2ccccc2)cc1` [Example 1b-1-85], for which half-maximal inhibition under setting [2] (IC50) was put at 13 nM.
Consider `COc1ccc(C(=O)Nc2ccc(S(=O)(=O)N[C@H](Cc3c[nH]c4ccccc34)C(=O)O)cc2)cc1` [Example 178], for which the IC50 was determined as 25.2 nM.
`O=C(Nc1ccc(S(=O)(=O)N[C@H](Cc2c[nH]c3ccccc23)C(=O)O)cc1)c1ccc([N+](=O)[O-])cc1` [Example 180] showed an IC50 of 45 nM.
As for `CN(C)c1ccc(C(=O)Nc2ccc(S(=O)(=O)N[C@H](Cc3c[nH]c4ccccc34)C(=O)O)cc2)cc1` [Example 181], 53.9 nM corresponded to half-maximal inhibition (IC50).
`Cc1ccc(C(=O)Nc2ccc(S(=O)(=O)N[C@H](Cc3c[nH]c4ccccc34)C(=O)O)cc2)cc1` [Example 182] came in with an IC50 of 5.9 nM.
In the case of `O=C(Nc1ccc(S(=O)(=O)N[C@H](Cc2c[nH]c3ccccc23)C(=O)O)cc1)c1ccc(Br)cc1` [Example 183], half-maximal inhibition under setting [2] (IC50) was put at 2.7 nM.
`CSc1ccc(C(=O)Nc2ccc(S(=O)(=O)N[C@H](Cc3c[nH]c4ccccc34)C(=O)O)cc2)cc1` [Example 184]: it took 3.25 nM to reach half-maximal inhibition (IC50).
